Test results: patent US11932634B2 (Gilead Sciences, Inc., priority 2021, dated 2024)

Experiments:
[1] = tested on: Jurkat NFκB-luciferase cells; assay: Jurkat NFκB-Luciferase Assay; format: cell-based; conditions: Homo sapiens; Jurkat NFκB-luciferase cells activated with anti-CD3 antibody (OKT3), 2.5 hrs at 37° C., One-Glo Ex; geometric mean; read-out: DGK NFKb Luciferase EC50;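 also: bioluminescence read-out normalized to DMSO basal activation and to maximum enhancement at 1 µM compound, rising signal indicating stronger T-cell activation through DGKα inhibition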
human DGKα = biological target: T1, human DGKα (Homo sapiens, UniProt P23743); assay: DGKα Biochemical Activity Assay (ADP-Glo);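 also: recombinant enzyme converting diacylglycerol in lipid micelles with ATP, ADP formed detected by luminescence, IC50 from a four-parameter nonlinear fit, geometric mean across experiments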
T1 construct: purchased Carna Biosciences'; inferred from the same paragraph's 'obtained from Carna Biosciences')
T1 sequence (P23743 whole entry): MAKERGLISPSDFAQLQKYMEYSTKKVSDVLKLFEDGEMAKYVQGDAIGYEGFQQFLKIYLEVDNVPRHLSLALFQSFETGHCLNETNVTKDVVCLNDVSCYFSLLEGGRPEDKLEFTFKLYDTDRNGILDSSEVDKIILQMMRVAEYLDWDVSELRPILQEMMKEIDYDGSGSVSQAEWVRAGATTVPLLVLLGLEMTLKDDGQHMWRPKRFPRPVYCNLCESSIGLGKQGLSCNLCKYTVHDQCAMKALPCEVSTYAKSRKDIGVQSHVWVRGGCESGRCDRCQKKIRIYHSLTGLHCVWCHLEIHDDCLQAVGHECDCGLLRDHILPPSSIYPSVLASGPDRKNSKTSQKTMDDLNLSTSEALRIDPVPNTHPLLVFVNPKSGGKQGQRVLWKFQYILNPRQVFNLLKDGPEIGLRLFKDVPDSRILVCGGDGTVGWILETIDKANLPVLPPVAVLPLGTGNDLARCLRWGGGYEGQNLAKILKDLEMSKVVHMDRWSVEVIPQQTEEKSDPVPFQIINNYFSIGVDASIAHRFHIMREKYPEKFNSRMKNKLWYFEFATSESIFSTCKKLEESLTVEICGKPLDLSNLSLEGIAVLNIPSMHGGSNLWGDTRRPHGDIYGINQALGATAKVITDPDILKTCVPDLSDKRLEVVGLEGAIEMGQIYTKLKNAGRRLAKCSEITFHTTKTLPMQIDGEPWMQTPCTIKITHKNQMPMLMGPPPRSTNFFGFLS
From the text: Alternatively, the enzymatic activity of human DGKα was monitored in a biochemical assay in the presence or absence of compounds and using micelles containing 18:1 Diacylglycerol (DAG), 16:0-18:1 PS (POPS) and Octylglucoside as substrate. DGKα activity led to conversion of DAG and ATP to Phosphatidic Acid (PA) and ADP. Levels of ADP were monitored by bioluminescence using the ADP-Glo Kinase Assay (Promega) and were indicative of DGKα activity.
Ten nanoliters of test compound dissolved in DMSO at various concentrations were dispensed into a 384-well low volume nonbinding service white plates (Corning #3824) using a Labcyte Echo instrument. Recombinant DGKα Biosciences) in assay buffer (5 μL in 50 mM MOPS [3-(N-morpholino) propanesulfonic acid], pH 7.2; 0.0025% Triton X-100; 1 mM dithiothreitol; 5 mM MgCl2, 200 μM ATP) was added to the compound-containing plate and was incubated for 15 minutes at 25° C. A substrate solution (5 μL in 1.7 mM 1,2-dioleoyl-sn-glycerol [18:1 DAG], 13.5 mM 1-palmitoyl-2-oleoyl-sn-glycero-3-phospho-L-serine [16:0-18:1 PS](POPS), 2 μM CaCl2), 100 mM Octylglucoside (OG), 1 mM DTT) (obtained from Carna Biosciences) diluted in DGK ALPHA assay buffer was then added to start the reaction. Final concentrations were 1 nM DGKα, 100 μM ATP, 1 μM calcium chloride, 0.85 mM 1,2-dioleoyl-sn-glycerol (18:1 DAG), 6.75 mM 1-palmitoyl-2-oleoyl-sn-glycero-3-phospho-L-serine (16:0-18:1 PS) (POPS), 1 μM CaCl2), 50 mM Octylglucoside (OG) and 5 mM MgCl2. The reaction mixture was incubated at 25° C. for 1 hour. ADP-Glo Reagent (10 μL, 10 mM Mg added) provided by the kit was added to each well and incubated at 25° C. for 40 minutes. Then, 20 μL of Kinase Detection Reagent was added and incubated at 25° C. for 40 minutes. Luciferase activity of each well was measured via luminescence on an Envision plate reader (PerkinElmer).
Least squares curve fittings were performed using a four-parameter variable slope nonlinear regression model. […] IC50 values from multiple experiments were averaged by geometric mean and the standard deviation was calculated.

SMILES	EC50 [1] [nM]	IC50 (human DGKα) [nM]
CN(c1cccc(C#CC2(C(F)(F)F)CC2)c1)c1nc(=O)n(C)c2cc(Cl)ccc12 [Example 8, 7-chloro-1-methyl-4-[N-methyl-3-[2-[1-(trifluoromethyl)cyclopropyl]ethynyl]anilino]quinazolin-2-one]	0.489	12.4
CN(c1cccc(-c2ccc(N3CCCC3)nc2)c1)c1nc(=O)n(C)c2cc(Cl)ccc12 [Example 7, 7-chloro-1-methyl-4-[N-methyl-3-(6-pyrrolidin-1-yl-3-pyridyl)anilino]quinazolin-2-one]	0.675	17.9
Cn1c(=O)nc(N(CC(F)F)c2cccc(C#CC3(C(F)(F)F)CC3)n2)c2cc(F)ccc21 [Example 47, 4-((2,2-difluoroethyl)(6-((1-(trifluoromethyl)cyclopropyl)ethynyl)pyridin-2-yl)amino)-6-fluoro-1-methylquinazolin-2(1H)-one]	1.37	15
CN(c1cccc(-c2ccc(C3CC3)cc2)c1)c1nc(=O)[nH]c2cc(Cl)ccc12 [Example 1, 7-chloro-4-[3-(4-cyclopropylphenyl)-N-methyl-anilino]-1H-quinazolin-2-one]	1.36	166
[2H]C([2H])([2H])n1c(=O)nc(N(C)c2cc(F)cc(C#CC3(C(F)(F)F)CC3)c2)c2ccc(Cl)cc21 [Example 15, 7-chloro-4-[3-fluoro-N-methyl-5-[2-[1-(trifluoromethyl)cyclopropyl]ethynyl]anilino]-1-(trideuteriomethyl)quinazolin-2-one]	0.557	27.3
[2H]C([2H])([2H])n1c(=O)nc(N(CC(F)F)c2ccnc(C#CC(C)(C)C(F)F)c2F)c2c(F)cccc21 [Example 123, 4-[[2-(4,4-difluoro-3,3-dimethyl-but-1-ynyl)-3-fluoro-4-pyridyl]-(2,2-difluoroethyl)amino]-5-fluoro-1-(trideuteriomethyl)quinazolin-2-one]	2.39	6.41
CC(C)(C#Cc1cccc(N(CC(F)F)c2nc(=O)[nH]c3ccc(F)cc23)c1F)C(F)(F)F [Example 49, 4-[N-(2,2-difluoroethyl)-2-fluoro-3-(4,4,4-trifluoro-3,3-dimethyl-but-1-ynyl)anilino]-6-fluoro-1H-quinazolin-2-one]	5.3	296
O=c1nc(N2CCOCc3c(C#CC4(C(F)(F)F)CC4)cccc32)c2cc(F)cc(F)c2[nH]1 [Example 102]	1.75	14.7
O=c1nc(N2CCCCc3c(Br)cncc32)c2c(F)cccc2[nH]1 [Example 149, 4-(6-bromo-2,3,4,5-tetrahydro-1H-pyrido[3,4-b]azepin-1-yl)-5-fluoroquinazolin-2(1H)-one]	34.1	150
CC(C)(O)C#Cc1nccc(N(CC(F)F)c2nc(=O)[nH]c3cccc(F)c23)c1F [Example 113, 4-[2,2-difluoroethyl-[3-fluoro-2-(3-hydroxy-3-methyl-but-1-ynyl)-4-pyridyl]amino]-5-fluoro-1H-quinazolin-2-one]	66.3	10.4
[2H]C([2H])([2H])n1c(=O)nc(N(CC(F)F)c2cc(F)cc(C#CC3(C(F)(F)F)CC3)c2)c2cc(F)ccc21 [Example 51, 4-[N-(2,2-difluoroethyl)-3-fluoro-5-[2-[1-(trifluoromethyl)cyclopropyl]ethynyl]anilino]-6-fluoro-1-(trideuteriomethyl)quinazolin-2-one]	0.75	35.3
O=c1nc(N(CC(F)F)c2cc(F)cc(-c3cnc(C4CC4)cn3)c2)c2c(F)c(F)ccc2[nH]1 [Example 39, 4-[3-(5-cyclopropylpyrazin-2-yl)-N-(2,2-difluoroethyl)-5-fluoro-anilino]-5,6-difluoro-1H-quinazolin-2-one]	0.705	13.4
CN(c1cccc(C#CC(C)(C)O)c1)c1nc(=O)n(C)c2cc(Cl)ccc12 [Example 4, 7-chloro-4-[3-(3-hydroxy-3-methyl-but-1-ynyl)-N-methyl-anilino]-1-methyl-quinazolin-2-one]	4.56	17
[2H]C([2H])([2H])n1c(=O)nc(N2CCOCc3c(C#CC4CCCN4C(=O)C4CC4)cccc32)c2c(F)cccc21 (stereo not drawn) [Example 169, 4-[6-[2-[1-(cyclopropanecarbonyl)pyrrolidin-2-yl]ethynyl]-3,5-dihydro-2H-4,1-benzoxazepin-1-yl]-5-fluoro-1-(trideuteriomethyl)quinazolin-2-one]	12.8	9.06
[2H]C([2H])([2H])n1c(=O)nc(N2CCOCc3c(C#CC4(C(F)(F)F)CCN(C)C4)cccc32)c2c(F)cccc21 (stereo not drawn) [Example 170, 5-fluoro-4-[6-[2-[1-methyl-3-(trifluoromethyl)pyrrolidin-3-yl]ethynyl]-3,5-dihydro-2H-4,1-benzoxazepin-1-yl]-1-(trideuteriomethyl)quinazolin-2-one]	3.75	25.7
CN(c1cccc(-c2ccc(N3CCCC3)nc2)c1)c1nc(=O)[nH]c2cc(Cl)ccc12 [Example 6, 7-chloro-4-[N-methyl-3-(6-pyrrolidin-1-yl-3-pyridyl)anilino]-1H-quinazolin-2-one]	2.24	84.5
[2H]C([2H])([2H])n1c(=O)nc(N(CC(F)F)c2cc(F)cc(C#CC3(C(F)(F)F)CC3)c2)c2c(F)c(F)ccc21 [Example 41, 4-[N-(2,2-difluoroethyl)-3-fluoro-5-[2-[1-(trifluoromethyl)cyclopropyl]ethynyl]anilino]-5,6-difluoro-1-(trideuteriomethyl)quinazolin-2-one]	1	9.63
CC(C)(O)C#Cc1cccc2c1COCCN2c1nc(=O)[nH]c2ccc(F)c(F)c12 [Example 88, 5,6-difluoro-4-[6-(3-hydroxy-3-methyl-but-1-ynyl)-3,5-dihydro-2H-4,1-benzoxazepin-1-yl]-1H-quinazolin-2-one]	21.9	4.7
CC(C)(O)C#Cc1cc(F)cc(N(CC(F)F)c2nc(=O)[nH]c3cccc(F)c23)c1 [Example 34, 4-[N-(2,2-difluoroethyl)-3-fluoro-5-(3-hydroxy-3-methyl-but-1-ynyl)anilino]-5-fluoro-1H-quinazolin-2-one]	13.4	32.8
[2H]C([2H])([2H])n1c(=O)nc(N2CCCc3c2ccnc3C#CC2(C(F)(F)F)CC2)c2c(F)c(F)ccc21 [Example 141, 5,6-difluoro-1-(trideuteriomethyl)-4-[5-[2-[1-(trifluoromethyl)cyclopropyl]ethynyl]-3,4-dihydro-2H-1,6-naphthyridin-1-yl]quinazolin-2-one]	2.37	6.28
[2H]C([2H])([2H])n1c(=O)nc(N(CC(F)F)c2cccc(C#CC(C)(C)O)c2F)c2c(F)cccc21 [Example 111, 4-[N-(2,2-difluoroethyl)-2-fluoro-3-(3-hydroxy-3-methyl-but-1-ynyl)anilino]-5-fluoro-1-(trideuteriomethyl)quinazolin-2-one]	9.32	3.11
[2H]C([2H])([2H])n1c(=O)nc(N(CC(F)F)c2cc(F)cc(-c3cnc(C4CC4)cn3)c2)c2c(F)c(F)ccc21 [Example 67, 4-[3-(5-cyclopropylpyrazin-2-yl)-N-(2,2-difluoroethyl)-5-fluoro-anilino]-5,6-difluoro-1-(trideuteriomethyl)quinazolin-2-one]	0.527	7.57
[2H]C([2H])([2H])n1c(=O)nc(N2CCOCc3c(C#CC45CC(CN4CC(F)F)C5)cccc32)c2c(F)cccc21 [Example 173, 4-[6-[2-[2-(2,2-difluoroethyl)-2-azabicyclo[2.1.1]hexan-1-yl]ethynyl]-3,5-dihydro-2H-4,1-benzoxazepin-1-yl]-5-fluoro-1-(trideuteriomethyl)quinazolin-2-one]	0.401	0.731
COC(C)(C)C#Cc1cccc2c1CCCN2c1nc(=O)[nH]c2cccc(F)c12 [Example 52, 5-fluoro-4-[5-(3-methoxy-3-methyl-but-1-ynyl)-3,4-dihydro-2H-quinolin-1-yl]-1H-quinazolin-2-one]	0.197	12.9
O=c1nc(N(CC(F)F)c2cc(F)cc(C#CC3(C(F)(F)F)CC3)c2)c2c(F)cccc2[nH]1 [Example 16, 4-[N-(2,2-difluoroethyl)-3-fluoro-5-[2-[1-(trifluoromethyl)cyclopropyl]ethynyl]anilino]-5-fluoro-1H-quinazolin-2-one]	1.19	252
O=c1nc(N2CCOCc3c(C#CC4(C(F)(F)F)CC4)cccc32)c2c(F)ccc(F)c2[nH]1 [Example 144]	5.34	21.8
CN(c1cncc(C#CC2(C(F)(F)F)CC2)n1)c1nc(=O)n(C)c2cc(Cl)ccc12 [Example 12, 7-chloro-1-methyl-4-[methyl-[6-[2-[1-(trifluoromethyl)cyclopropyl]ethynyl]pyrazin-2-yl]amino]quinazolin-2-one]	1.04	2.91
O=c1nc(N(CC(F)F)c2cccc(C#CC3(C(F)F)CC3)c2F)c2c(F)cccc2[nH]1 [Example 62, 4-[N-(2,2-difluoroethyl)-3-[2-[1-(difluoromethyl)cyclopropyl]ethynyl]-2-fluoro-anilino]-5-fluoro-1H-quinazolin-2-one]	1.13	28.2
[2H]C([2H])([2H])n1c(=O)nc(N2CCCc3c(C#CC(C)(C)O)cccc32)c2c(F)cccc21 [Example 55, 5-fluoro-4-[5-(3-hydroxy-3-methyl-but-1-ynyl)-3,4-dihydro-2H-quinolin-1-yl]-1-(trideuteriomethyl)quinazolin-2-one]	4.68	5.82
CC(C)(O)C#Cc1cc(F)cc(N(CC(F)F)c2nc(=O)[nH]c3c(Cl)cc(F)cc23)c1 [Example 114, 8-chloro-4-[N-(2,2-difluoroethyl)-3-fluoro-5-(3-hydroxy-3-methyl-but-1-ynyl)anilino]-6-fluoro-1H-quinazolin-2-one]	112	445
